# Results taken from the Kinase Knowledgebase extract (Sharma et al. 2016).
# Target: MAPK14 (human) (UniProt Q16539)
# Assay: Inhibition of MAPK14 Kinase Activity
# Details: Monocyte
# Sequence of MAPK14 (human) (Q16539 whole entry, looked up): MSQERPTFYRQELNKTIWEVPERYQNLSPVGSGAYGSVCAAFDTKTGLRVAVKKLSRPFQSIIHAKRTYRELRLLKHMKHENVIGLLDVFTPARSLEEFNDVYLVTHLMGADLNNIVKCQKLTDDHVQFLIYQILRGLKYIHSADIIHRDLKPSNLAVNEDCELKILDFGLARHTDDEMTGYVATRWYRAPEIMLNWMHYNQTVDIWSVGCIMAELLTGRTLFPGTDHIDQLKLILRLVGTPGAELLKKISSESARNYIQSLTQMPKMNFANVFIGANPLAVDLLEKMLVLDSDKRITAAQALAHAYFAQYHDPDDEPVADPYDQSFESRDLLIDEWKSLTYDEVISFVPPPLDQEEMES
row,SMILES,IC50
1,Cc1cc(OCc2ccc(F)cc2F)c(Br)c(=O)n1-c1ccc(CNC(=O)C(C)(C)O)cc1,< 1000 nM
2,Cc1cc(OCc2ccc(F)cc2F)c(Br)c(=O)n1Cc1ccc(C(=O)N2CCOCC2)o1,< 1000 nM
3,Cc1cc(OCc2ccc(F)cc2F)c(Cl)c(=O)n1Cc1ccc2c(c1)CN(C(=O)C(C)(C)O)C2,< 1000 nM
4,Cc1ccc(C(N)=O)cc1-n1c(C)cc(OCc2ccc(F)cc2F)c(Br)c1=O,< 1000 nM
5,Cc1cc(OCc2ccc(F)cc2F)c(Br)c(=O)n1Cc1cnc(CNC(=O)CN)nc1,< 1000 nM
6,Cc1ccc(C(N)=O)cc1-n1c(C)cc(OCc2ccc(F)cc2CNC(=O)NC2CC2)c(Cl)c1=O,< 1000 nM
7,Cc1cc(OCc2ccc(F)cc2F)c(Br)c(=O)n1Cc1cc[nH]n1,< 1000 nM
8,Cc1cc(OCc2ccc(F)cc2F)c(Br)c(=O)n1-c1c(F)cc(C(O)COC(N)=O)cc1F (stereo not given),< 1000 nM
9,Cc1cc(OCc2ccc(F)cc2F)c(Br)c(=O)n1-c1c(F)cc(/C=C/CO)cc1F,< 1000 nM
10,Cc1cc(OCc2ccc(F)cc2C(N)=O)c(Br)c(=O)n1-c1c(F)cccc1F,25000 to 100000 nM
11,Cc1cc(OCc2ccc(F)cc2F)c(Br)c(=O)n1Cc1cnc(N(C)C)nc1,< 1000 nM
12,CNC(=O)c1ccc(C(C)n2c(C)cc(OCc3ccc(F)cc3F)c(Br)c2=O)cc1 (stereo not given),1000 to 25000 nM
13,Cc1cc(OCc2ccc(F)cc2F)c(Br)c(=O)n1Cc1ccc(C(=O)NCCO)o1,1000 to 25000 nM
14,CNCC(=O)NCc1ccc(Cn2c(C)cc(OCc3ccc(F)cc3F)c(Br)c2=O)cc1,< 1000 nM
15,Cc1cc(OCc2ccc(F)cc2F)c(Br)c(=O)n1-c1ccc(C(=O)N(C)C)cc1C(F)(F)F,1000 to 25000 nM
